Experimental findings from ChEMBL document CHEMBL4339189, “Dissymmetric pyridyl-substituted 3,5-bis(arylidene)-4-piperidones as anti-hepatoma agents by inhibiting NF-κB pathway activation” (Eur J Med Chem, 2019) are described below.

Broadly, the IC50 is the concentration that inhibits the measured activity by half. Broadly, the inhibition is the percentage by which the read-out fell short of the control.

The source made the active and inactive calls. No cut-off for these calls is given here.

Series [1] deals with L02. Briefly: Cytotoxicity against human LO2 cells assessed as reduction in cell viability incubated for 24 hrs by MTT assay. The class given is cell-based. To be noted: L02, 24 h. (In general: Tetrazolium dyes change colour on reduction, which living cells bring about.)
The subject of series [2] is RAW264.7. Description: Cytotoxicity against mouse RAW264.7 cells assessed as reduction in cell viability at 6.0 uM incubated for 24 hrs by MTT assay. The class given is cell-based. To be noted: raw264.7, 24 h.
In series [3] the test system is RAW264.7. Description: Antiinflammatory activity in mouse RAW264.7 cells assessed as inhibition of LPS-stimulated TNF-alpha production at 6.0 uM preincubated for 2 hrs followed by LPS stimulaton measured after 22 hrs by ELISA relative to control. The class given is functional. (In general: An ELISA detects its analyte on a solid surface through an enzyme-linked reagent.)

Series [4] in a line: Cytotoxicity against human HHL5 cells assessed as reduction in cell viability incubated for 24 hrs by MTT assay. The class given is cell-based. The note with it: HHL-5, 24 h.
The test system of series [5] is HepG2. Briefly: Cytotoxicity against human HepG2 cells assessed as reduction in cell viability incubated for 24 hrs by MTT assay. The note with it: HepG2, 24 h. The class given is functional, cell-based.
The subject of series [6] is RAW264.7. Briefly: Antiinflammatory activity in mouse RAW264.7 cells assessed as inhibition of LPS-stimulated IL-6 production 6.0 uM preincubated for 2 hrs followed by LPS stimulaton measured after 22 hrs by ELISA relative to control. The class given is functional.
In series [7] the test system is SMMC-7721. Briefly: Cytotoxicity against human SMMC7721 cells assessed as reduction in cell viability incubated for 24 hrs by MTT assay. The class given is functional, cell-based. The note with it: SMMC-7721, 24 h.
The subject of series [8] is QGY-7703. Briefly: Cytotoxicity against human QGY7703 cells assessed as reduction in cell viability incubated for 24 hrs by MTT assay. The note with it: QGY-7703, 24 h. The class given is functional, cell-based.

`CN1C/C(=C\c2cccnc2)C(=O)/C(=C/c2ccccc2F)C1`: the concentration for half-maximal inhibition (IC50) in series [1] worked out at 15.9 µM; in series [4], 13.5 µM; in series [5] it was 4.81 µM; in series [7] it was 5.42 µM; in series [8] it was 4.47 µM. Moreover, the Activity entry in series [2] is given as “Non-Toxic”. In addition, the inhibition result in series [3] and in series [6] was “Active” each time.

On to `O=C1/C(=C/c2ccncc2)CN(S(=O)(=O)c2ccc(C(F)(F)F)cc2)C/C1=C\c1ccccc1C(F)(F)F`, for which the 50% inhibitory concentration (IC50) in series [1] came to 13.8 µM; in series [4], 11.7 µM; in series [5], 3.24 µM; in series [7], 3.84 µM; in series [8], 4.68 µM. In series [2], the Activity result is given as “Non-Toxic”.

On to `Cc1ccc(S(=O)(=O)N2C/C(=C\c3cccnc3)C(=O)/C(=C/c3ccccc3C(F)(F)F)C2)cc1`, for which the IC50 amounted to 12.3 µM in series [1]; 11.1 µM in series [4]; 2.93 µM in series [5]; 6.7 µM in series [7]; 6.17 µM in series [8]. Further, the Activity entry in series [2] is given as “Non-Toxic”. The inhibition entry in series [3] and in series [6] was “Active” throughout.

Consider `O=C1/C(=C/c2ccncc2)CN(S(=O)(=O)c2ccc(Br)cc2)C/C1=C\c1ccccc1F`, for which the IC50 in series [1] is 19.4 µM; in series [4], > 20 µM; in series [5], 9.3 µM; in series [7], 12.6 µM; in series [8] it was 11.5 µM. Further, the Activity result in series [2] is recorded as “Non-Toxic”. Moreover, the inhibition result in series [3] and in series [6] was “inactive” each time.

As for `O=C1/C(=C/c2ccncc2)CNC/C1=C\c1ccccc1C(F)(F)F`, the IC50 is 13.4 µM in series [1]; 9.87 µM in series [4]; 6.13 µM in series [5]; 4.5 µM in series [7]; 4.9 µM in series [8]. The Activity entry in series [2] is listed as “Non-Toxic”. Further, the inhibition entry in series [3] and in series [6] was “Active” throughout.

With `O=C1/C(=C/c2ccncc2)CN(S(=O)(=O)c2ccc([N+](=O)[O-])cc2)C/C1=C\c1ccccc1C(F)(F)F`, the IC50 in series [1] is 18.6 µM; in series [4], > 20 µM; in series [5] it was 13.4 µM; in series [7] it was > 20 µM; in series [8], 9.73 µM. The Activity result in series [2] is reported as “Non-Toxic”.

In the case of `CN1C/C(=C\c2ccncc2)C(=O)/C(=C/c2ccccc2C(F)(F)F)C1`, the 50% inhibitory concentration (IC50) in series [1] stood at 15.8 µM; in series [4], 10.4 µM; in series [5] it was 3.3 µM; in series [7], 4.1 µM; in series [8], 4.5 µM. Also, the Activity result in series [2] is listed as “Non-Toxic”. For the same compound, the inhibition at 6 µM in series [3] was < 30%. In addition, the “inhibition (INH)” value in series [6] is listed as <30%.

Turning to `O=C1/C(=C/c2cccnc2)CN(S(=O)(=O)c2ccccc2)C/C1=C\c1ccccc1C(F)(F)F`, the half-maximal inhibitory concentration (IC50) in series [1] is 12.5 µM; in series [4], 14.3 µM; in series [5], 5.37 µM; in series [7], 10.9 µM; in series [8] it was 6.24 µM. Besides, the Activity entry in series [2] is listed as “Non-Toxic”. The inhibition result in series [3] and in series [6] was “Active” in each case.

With `CN1C/C(=C\c2cccnc2)C(=O)/C(=C/c2ccccc2C(F)(F)F)C1`, the half-maximal inhibitory concentration (IC50) worked out at 14.1 µM in series [1]; 11.1 µM in series [4]; 2.55 µM in series [5]; 3.9 µM in series [7]; 2.91 µM in series [8]. Moreover, the Activity entry in series [2] is on record as “Non-Toxic”. Besides, the inhibition at 6 µM in series [3] was < 30%. Further, in series [6], the “inhibition (INH)” value is <30%.

With `O=C1/C(=C/c2ccncc2)CNC/C1=C\c1ccccc1F`, the IC50 in series [1] was determined as 14.7 µM; in series [4], 13.9 µM; in series [5], 8.2 µM; in series [7], 18.4 µM; in series [8], 14.2 µM. The Activity entry in series [2] is listed as “Non-Toxic”. For the same compound, the inhibition entry in series [3] and in series [6] was “inactive” throughout.

`CC(=O)Nc1ccc(S(=O)(=O)N2C/C(=C\c3cccnc3)C(=O)/C(=C/c3ccccc3C(F)(F)F)C2)cc1`: the IC50 was 15.3 µM in series [1]; > 20 µM in series [4]; 4.33 µM in series [5]; 9.83 µM in series [7]; 5.38 µM in series [8]. The Activity result in series [2] is “Non-Toxic”. The inhibition entry in series [3] and in series [6] was “Active” each time.

Regarding `O=C1/C(=C/c2ccncc2)CN(S(=O)(=O)c2ccc(Br)cc2)C/C1=C\c1ccccc1C(F)(F)F`, the IC50 in series [1] was determined as 12.6 µM; in series [4] it was 9.32 µM; in series [5] it was 14.5 µM; in series [7] it was 10.5 µM; in series [8], 7.06 µM. Besides, the Activity result in series [2] was “Non-Toxic”.

For `O=C1/C(=C/c2ccncc2)CN(S(=O)(=O)c2ccc(Cl)cc2)C/C1=C\c1ccccc1C(F)(F)F`, the IC50 in series [1] turned out to be 14.9 µM; in series [4] it was 11 µM; in series [5], 7.19 µM; in series [7] it was 5.51 µM; in series [8] it was 12.7 µM. Besides, in series [2], the Activity result is on record as “Non-Toxic”.

For the compound `O=C1/C(=C/c2ccccc2F)CNC/C1=C\c1ccccc1F`, the concentration for half-maximal inhibition (IC50) in series [1] was 10.2 µM; in series [4], 14.5 µM; in series [5], 3.33 µM; in series [7] it was 8.8 µM; in series [8], 4.97 µM.

With `O=C1/C(=C/c2ccncc2)CN(S(=O)(=O)c2ccc(F)cc2)C/C1=C\c1ccccc1C(F)(F)F`, the IC50 in series [1] came out at 12.9 µM; in series [4], 12 µM; in series [5], 4.01 µM; in series [7] it was 9.27 µM; in series [8], 7.7 µM. In addition, the Activity entry in series [2] was “Non-Toxic”.

For the compound `O=C1/C(=C/c2ccncc2)CN(S(=O)(=O)c2ccccc2)C/C1=C\c1ccccc1C(F)(F)F`, the IC50 in series [1] turned out to be 12.3 µM; in series [4], 12.1 µM; in series [5], 7.02 µM; in series [7] it was 6.54 µM; in series [8], 6.21 µM. Moreover, the Activity entry in series [2] was “Non-Toxic”.

`Cc1ccc(S(=O)(=O)N2C/C(=C\c3ccncc3)C(=O)/C(=C/c3ccccc3C(F)(F)F)C2)cc1`: the concentration for half-maximal inhibition (IC50) in series [1] was 12.8 µM; in series [4], 15.9 µM; in series [5] it was 4.64 µM; in series [7], 5.59 µM; in series [8], 5.09 µM. Besides, the Activity result in series [2] is “Non-Toxic”.

On to `COc1cc(/C=C/C(=O)CC(=O)/C=C/c2ccc(O)c(OC)c2)ccc1O` [CURCUMIN], for which the IC50 in series [1] came out at 22.7 µM; in series [4], 24.2 µM; in series [5], 17.4 µM; in series [7] it was 16.7 µM; in series [8], 23.9 µM.

In the case of `S=C(S)N1CCCC1`, the inhibition entry in series [3] and in series [6] was “Active” throughout.

`CC(=O)Nc1ccc(S(=O)(=O)N2C/C(=C\c3ccncc3)C(=O)/C(=C/c3ccccc3C(F)(F)F)C2)cc1`: the IC50 in series [1] was 10.1 µM; in series [4], 8.87 µM; in series [5], 4.84 µM; in series [7], 5.76 µM; in series [8], 5.56 µM. For the same compound, the Activity entry in series [2] is listed as “Non-Toxic”.

With `N#Cc1ccc(S(=O)(=O)N2C/C(=C\c3ccncc3)C(=O)/C(=C/c3ccccc3C(F)(F)F)C2)cc1`, the 50% inhibitory concentration (IC50) in series [1] was 17.6 µM; in series [4] it was 19.7 µM; in series [5] it was 5.92 µM; in series [7], 9.61 µM; in series [8], 6.29 µM. For the same compound, the Activity entry in series [2] is listed as “Non-Toxic”.
